The experiment has as its system L1210 leukemia ip in BDF1 mice, survival T/C. The experiment is described as follows: NCI In Vivo Anticancer Drug Screen. Data for tumor model L1210 Leukemia (intraperitoneal) in B6D2F1 (BDF1) mice. The following applies: endpoint: mean survival time, higher = longer survival. Summed up:
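Antitumor effect is assessed in tumor-bearing animals. Survival in the compound arm is compared with a vehicle-dosed control arm and expressed as their quotient.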

The mark [1] stands for this setting: dose: 50.0 mg/kg/injection, schedule: Q01DX001 (ip), vehicle: carboxymethylcellulose (CMC).
The mark [2] stands for this setting: dose: 100.0 mg/kg/injection, schedule: Q01DX001 (ip), vehicle: carboxymethylcellulose (CMC).
[3] abbreviates: dose: 100.0 mg/kg/injection, schedule: Q04DX003 (ip), vehicle: saline.
Where [4] appears, read: dose: 100.0 mg/kg/injection, schedule: Q04DX002 (ip), vehicle: Klucel (hydroxypropylcellulose) (HPC).
Setting [5] is: dose: 200.0 mg/kg/injection, schedule: Q04DX002 (ip), vehicle: Klucel (hydroxypropylcellulose) (HPC).
[6] abbreviates: dose: 400.0 mg/kg/injection, schedule: Q04DX002 (ip), vehicle: Klucel (hydroxypropylcellulose) (HPC).
Where [7] appears, read: dose: 75.0 mg/kg/injection, schedule: Q01DX001 (ip), vehicle: saline.
[8] abbreviates: dose: 100.0 mg/kg/injection, schedule: Q01DX001 (ip), vehicle: saline.
[9] abbreviates: dose: 150.0 mg/kg/injection, schedule: Q01DX001 (ip), vehicle: saline.
Setting [10] is: dose: 200.0 mg/kg/injection, schedule: Q01DX001 (ip), vehicle: saline.
The mark [11] stands for this setting: dose: 100.0 mg/kg/injection, schedule: Q04DX003 (ip), vehicle: Klucel (hydroxypropylcellulose) (HPC).
[12] abbreviates: dose: 200.0 mg/kg/injection, schedule: Q04DX003 (ip), vehicle: Klucel (hydroxypropylcellulose) (HPC).
Where [13] appears, read: dose: 400.0 mg/kg/injection, schedule: Q04DX003 (ip), vehicle: Klucel (hydroxypropylcellulose) (HPC).
[14] abbreviates: dose: 400.0 mg/kg/injection, schedule: Q01DX001 (ip), vehicle: saline.

Molecules are shown by their SMILES. Where “and” joins values, the source holds several entries; their conditions need not be identical. Equal entries are not always repeated. Inconclusive results and toxic doses are left out.

Regarding `C/C(O)=C(\C#N)c1ccc(Cl)cc1`, the T/C was 100 % of control (dose: 12.5 mg/kg/injection, schedule: Q01DX001 (ip), vehicle: carboxymethylcellulose (CMC)); 100 % of control and 104 % of control (dose: 12.5 mg/kg/injection, schedule: Q04DX003 (ip), vehicle: carboxymethylcellulose (CMC)); 108 % of control (dose: 25.0 mg/kg/injection, schedule: Q01DX001 (ip), vehicle: carboxymethylcellulose (CMC)); 103 % of control and 113 % of control (dose: 25.0 mg/kg/injection, schedule: Q01DX009 (ip), vehicle: carboxymethylcellulose (CMC)); 99 % of control and 100 % of control (dose: 25.0 mg/kg/injection, schedule: Q04DX002 (ip), vehicle: carboxymethylcellulose (CMC)); 98 % of control and 90 % of control (dose: 25.0 mg/kg/injection, schedule: Q04DX003 (ip), vehicle: carboxymethylcellulose (CMC)). Further, the T/C reads like this: under setting [1], 103 % of control and 111 % of control; (dose: 50.0 mg/kg/injection, schedule: Q01DX009 (ip), vehicle: carboxymethylcellulose (CMC)) 96 % of control and 100 % of control; (dose: 50.0 mg/kg/injection, schedule: Q04DX002 (ip), vehicle: carboxymethylcellulose (CMC)) 102 % of control and 103 % of control; (dose: 50.0 mg/kg/injection, schedule: Q04DX003 (ip), vehicle: carboxymethylcellulose (CMC)) 94 % of control and 98 % of control; under setting [2], 97 % of control and 102 % of control; (dose: 100.0 mg/kg/injection, schedule: Q01DX009 (ip), vehicle: carboxymethylcellulose (CMC)) 94 % of control. Also, for the setting “dose: 100.0 mg/kg/injection, schedule: Q04DX002 (ip), vehicle: carboxymethylcellulose (CMC)”, the T/C was 93 % of control and 90 % of control.

As for `CC(=O)NCC[N+](C)(C)C`, the T/C (dose: 25.0 mg/kg/injection, schedule: Q01DX009 (ip), vehicle: saline) was 100 % of control; the T/C (dose: 25.0 mg/kg/injection, schedule: Q04DX003 (ip), vehicle: saline) is 97 % of control; the T/C (dose: 50.0 mg/kg/injection, schedule: Q01DX009 (ip), vehicle: saline) was 100 % of control; the T/C (dose: 50.0 mg/kg/injection, schedule: Q04DX003 (ip), vehicle: saline) is 95 % of control; the T/C (dose: 100.0 mg/kg/injection, schedule: Q01DX009 (ip), vehicle: saline) is 105 % of control; the T/C under setting [3] was 95 % of control.

With `O=C(NCCc1ccccc1)c1ccc(Cl)cc1`, the T/C under setting [4] is 115 % of control, the T/C under setting [5] is 92 % of control and the T/C under setting [6] is 89 % of control.

As for `Cc1ncc(CCl)c2c1OC(C)(C)OC2`, the T/C is 100 % of control under setting [7], 100 % of control under setting [8], 101 % of control under setting [9] and 94 % of control under setting [10].

Turning to `CC(=O)/C(=C\N(C)C)C(=O)Nc1ccccn1`, the T/C (dose: 100.0 mg/kg/injection, schedule: Q01DX001 (ip), vehicle: saline with Tween-80) was 98 % of control; the T/C (dose: 200.0 mg/kg/injection, schedule: Q01DX001 (ip), vehicle: saline with Tween-80) is 101 % of control; the T/C (dose: 400.0 mg/kg/injection, schedule: Q01DX001 (ip), vehicle: saline with Tween-80) was 93 % of control.

As to `O=C(Nc1ccc(F)cc1)c1ccccc1Cl`, the T/C is 98 % of control (dose: 100.0 mg/kg/injection, schedule: Q01DX009 (ip), vehicle: acetone); 102 % of control (dose: 200.0 mg/kg/injection, schedule: Q01DX009 (ip), vehicle: acetone); 102 % of control (dose: 400.0 mg/kg/injection, schedule: Q01DX009 (ip), vehicle: acetone).

As to `CCCCCCCCCCCCc1ccc(-c2cc(-c3ccccc3)cc(-c3ccccc3)c2)cc1`, the T/C was 100 % of control under setting [7]; 89 % of control under setting [9]; 94 % of control (dose: 300.0 mg/kg/injection, schedule: Q01DX001 (ip), vehicle: saline).

On to `O=[N+]([O-])c1cc(S(=O)(=O)Oc2ccccc2)ccc1Cl`, for which the T/C is 105 % of control (dose: 12.5 mg/kg/injection, schedule: Q01DX009 (ip), vehicle: Klucel (hydroxypropylcellulose) (HPC)); 105 % of control (dose: 25.0 mg/kg/injection, schedule: Q01DX009 (ip), vehicle: Klucel (hydroxypropylcellulose) (HPC)); 116 % of control under setting [1]; 100 % of control (dose: 50.0 mg/kg/injection, schedule: Q01DX009 (ip), vehicle: Klucel (hydroxypropylcellulose) (HPC)); 100 % of control under setting [2]; 98 % of control under setting [11]. For the same molecule, the T/C runs as follows: (dose: 200.0 mg/kg/injection, schedule: Q01DX001 (ip), vehicle: carboxymethylcellulose (CMC)) 100 % of control; under setting [12], 103 % of control; (dose: 400.0 mg/kg/injection, schedule: Q01DX001 (ip), vehicle: carboxymethylcellulose (CMC)) 105 % of control; under setting [13], 89 % of control.

In the case of `CCN(CC)CCCNc1cc(C)c(C)cc1[N+](=O)[O-]`, the T/C under setting [3] was 100 % of control.

On to `O=C(Nc1cc([N+](=O)[O-])ccc1F)N(Cc1ccccc1)c1ccccc1`, for which the T/C under setting [11] is 97 % of control, the T/C under setting [12] is 92 % of control and the T/C under setting [13] is 87 % of control.

With `N#CC(C#N)=Cc1ccc2ccc3cccc4ccc1c2c34`, the T/C under setting [11] was 91 % of control, the T/C under setting [12] was 93 % of control and the T/C under setting [13] is 93 % of control.

For the molecule `ClCCN(CC#CCCCC#CCN(CCCl)CCCl)CCCl`, the T/C under setting [8] was 168 % of control.

As to `Cc1cc(C)n(/N=C/c2ccc(/C=N/n3c(C)cc(C)c(C#N)c3=O)cc2)c(=O)c1C#N`, the T/C (dose: 100.0 mg/kg/injection, schedule: Q01DX001 (ip), vehicle: Klucel (hydroxypropylcellulose) (HPC)) was 91 % of control; the T/C under setting [11] was 92 % of control; the T/C (dose: 200.0 mg/kg/injection, schedule: Q01DX001 (ip), vehicle: Klucel (hydroxypropylcellulose) (HPC)) was 87 % of control; the T/C under setting [12] is 87 % of control; the T/C (dose: 400.0 mg/kg/injection, schedule: Q01DX001 (ip), vehicle: Klucel (hydroxypropylcellulose) (HPC)) was 94 % of control; the T/C under setting [13] is 90 % of control.

On to `Cc1ccnc(NC(c2ccccc2)c2ccc3cccnc3c2O)c1` (configuration not stated), for which the T/C is, setting by setting: under setting [8], 103 % of control; under setting [10], 95 % of control; under setting [14], 86 % of control.

Regarding `O=C(O)c1cc(Cl)cc(F)c1Cl`, the T/C under setting [4] was 101 % of control, the T/C under setting [5] was 105 % of control and the T/C under setting [6] is 105 % of control.

Consider `[O-]c1on[n+](C2CCCCC2)c1-c1ccccc1`, for which the T/C runs as follows: (dose: 100.0 mg/kg/injection, schedule: Q04DX003 (ip), vehicle: saline with Tween-80) 95 % of control; (dose: 200.0 mg/kg/injection, schedule: Q04DX003 (ip), vehicle: saline with Tween-80) 91 % of control; (dose: 400.0 mg/kg/injection, schedule: Q04DX003 (ip), vehicle: saline with Tween-80) 101 % of control.

As to `O=c1c2cnc3c4cccnc4ccc3c2[nH]n1-c1ccccc1`, the T/C is, setting by setting: under setting [4], 105 % of control; under setting [5], 109 % of control; under setting [6], 98 % of control.

Consider `CC(C)CCCC(C)C1CCC2C3CC(O)C4=CC(O)CCC4(C)C3CCC12C` (configuration not stated), for which the T/C was 92 % of control (dose: 75.0 mg/kg/injection, schedule: Q01DX001 (ip), vehicle: other) and 93 % of control (dose: 150.0 mg/kg/injection, schedule: Q01DX001 (ip), vehicle: other).

Turning to `C=C1C2CCC3(C)C(c4ccoc4)OC(=O)CC13OC1CC(=O)C(C)(C)C(CC(=O)OC)C12C` (configuration not stated), the T/C reads like this: under setting [8], 97 % of control; under setting [10], 96 % of control; under setting [14], 114 % of control.

In the case of `ClCCOCOCCCl`, the T/C is 104 % of control (dose: 20.0 mg/kg/injection, schedule: Q04DX003 (ip), vehicle: Klucel (hydroxypropylcellulose) (HPC)); 104 % of control (dose: 40.0 mg/kg/injection, schedule: Q04DX003 (ip), vehicle: Klucel (hydroxypropylcellulose) (HPC)); 101 % of control (dose: 80.0 mg/kg/injection, schedule: Q04DX003 (ip), vehicle: Klucel (hydroxypropylcellulose) (HPC)).

On to `O=C(Nc1cccc(F)c1)Nc1ccccc1C(F)(F)F`, for which the T/C reads like this: (dose: 100.0 mg/kg/injection, schedule: Q01DX009 (ip), vehicle: Klucel (hydroxypropylcellulose) (HPC)) 97 % of control; (dose: 200.0 mg/kg/injection, schedule: Q01DX009 (ip), vehicle: Klucel (hydroxypropylcellulose) (HPC)) 91 % of control; (dose: 400.0 mg/kg/injection, schedule: Q01DX009 (ip), vehicle: Klucel (hydroxypropylcellulose) (HPC)) 94 % of control.

The values above are taken from PubChem BioAssay AID248 (DTP/NCI, 2004).
